Results on 28 compounds are retold here after patent US8048892B2, “Azaquinolone based compounds exhibiting prolyl hydroxylase inhibitory activity, compositions, and uses thereof” (Amgen Inc., priority 2006, dated 2011).

The target of this test is HIF PHD2 (Homo sapiens, UniProt Q9GZT9). Description: PHD2 inhibition assay (TR-FRET, VCB-Eu detection of hydroxylated P564-HIF1α peptide). It counts as biochemical. As to conditions: 2 nM PHD2, 100 nM P564-HIF1α peptide, 0.25 μM 2-oxoglutarate. On the procedure:
Inhibition of HIF PHD2 activity was quantified utilizing the TR-FRET technology. HIF PHD2 catalyzes a hydroxyl modification on the proline residue of the P564-HIF1α peptide substrate (Biotin-DLEMLAPYIPMDDDFQL (SEQ ID NO: 7)) resulting in recognition and binding of the europylated Von Hippel-Lindau protein (pVHL), elongin B and elongin C heterotrimeric (VCB-Eu) complex.
The PHD2 inhibition assay was executed by addition of freshly dissolved FeCl2 to 178.57 μM (100 μM final concentration) in PHD2 Reaction Buffer containing 30 mM MES, pH 6, 10 mM NaCl, 0.25% Brij-35, 0.01% BSA, and 1% DMSO. 28 μL of the iron solution and 2 μL of inhibitor compounds serially diluted in 100% DMSO (5% DMSO final) were added to black polypropylene 96-well microtiter plates. To that, 10 μL of 10 nM PHD2 (2 nM final) was added to all wells of the plate except for the 8 wells of column 12 (LO control), and allowed to incubate at room temperature on the shaker for one hour. Column 6 was the HI control containing PHD2 enzyme and 5% DMSO vehicle, but no inhibitor compound. To initiate the PHD2 enzymatic reaction, 10 μL of a solution containing 500 nM P564-HIF1α peptide (100 nM final), 10 mM ascorbic acid (2 mM final), and 1.25 μM 2-oxoglutarate (α-ketoglutarate; 0.25 μM final) in PHD2 Reaction Buffer was added to all wells of the plate and allowed to incubate on the shaker at room temperature for one hour.
The reaction was terminated by addition of 25 μL TR-FRET Buffer (50 mM TRIS-HCl, pH 9, 100 mM NaCl, 0.05% BSA, and 0.5% Tween-20) containing 150 mM succinate (product inhibitor; 50 mM final), 75 nM streptavidin-APC (25 nM final), and 7.5 nM VCB-Eu (2.5 nM final). The TR-FRET detection reagents were placed on a shaker for 1 hour to reach binding equilibrium before reading on the Discovery platform (PerkinElmer). Europium is excited at 315 nm and phosphoresces at 615 nm with a large Stoke's shift. APC, in turn, emits at 655 nm upon excitation at 615 nm. The TR-FRET signal is measured as the ratio of the APC 655 nm signal divided by the internal europium reference 615 nm emission signal.
The POC (percentage of control) was determined by comparing the signal from hydroxylated peptide substrate in the enzyme reaction containing inhibitor compound with that from PHD2 enzyme with DMSO vehicle alone (HI control), and no enzyme (LO control). POC was calculated using the formula: % control (POC)=(cpd−average LO)/(average HI−average LO)*100. Data (consisting of POC and inhibitor concentration in μM) was fitted to a 4-parameter equation (y=A+((B−A)/(1+((x/C)^D))), where A is the minimum y (POC) value, B is the maximum y (POC), C is the x (cpd concentration) at the point of inflection and D is the slope factor) using a Levenburg-Marquardt non-linear regression algorithm.
In general terms: Time-resolved FRET reads energy transfer from a long-lived donor to a nearby acceptor.

Chain of HIF PHD2 (Q9GZT9 whole entry): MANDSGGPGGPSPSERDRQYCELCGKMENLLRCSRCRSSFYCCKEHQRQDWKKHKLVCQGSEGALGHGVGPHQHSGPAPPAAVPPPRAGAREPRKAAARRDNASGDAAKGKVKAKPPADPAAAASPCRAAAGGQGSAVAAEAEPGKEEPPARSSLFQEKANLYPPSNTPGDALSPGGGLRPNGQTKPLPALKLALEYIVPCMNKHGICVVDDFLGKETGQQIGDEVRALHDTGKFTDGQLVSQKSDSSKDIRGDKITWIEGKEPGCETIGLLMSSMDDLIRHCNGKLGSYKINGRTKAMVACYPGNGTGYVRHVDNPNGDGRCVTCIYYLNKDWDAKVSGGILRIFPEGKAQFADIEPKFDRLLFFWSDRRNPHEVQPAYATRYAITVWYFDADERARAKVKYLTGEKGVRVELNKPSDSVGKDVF

For `Cn1c(=O)c(C(=O)NCC(=O)O)c(O)c2ccc(-c3cccs3)nc21` [Example 14, N-((4-Hydroxy-1-methyl-2-oxo-7-(2-thienyl)-1,2-dihydro-1,8-naphthyridin-3-yl)carbonyl)glycine], the IC50 is below 50 nM.

For `Cc1ccc(-c2ccc3c(O)c(C(=O)NCC(=O)O)c(=O)n(C)c3n2)cc1` [Example 15, N-((4-Hydroxy-1-methyl-7-(4-methylphenyl)-2-oxo-1,2-dihydro-1,8-naphthyridin-3-yl)carbonyl)glycine], the half-maximal inhibitory concentration (IC50) lay within 100 to 500 nM.

`COc1ccc(-c2ccc3c(O)c(C(=O)NCC(=O)O)c(=O)n(C)c3n2)cc1` [Example 16, N-((4-Hydroxy-1-methyl-7-(4-(methyloxy)phenyl)-2-oxo-1,2-dihydro-1,8-naphthyridin-3-yl)carbonyl)glycine] registered an IC50 of 50 to 100 nM.

`Cn1c(=O)c(C(=O)NCC(=O)O)c(O)c2ccc(-c3cccnc3)nc21` [Example 17, N-((4-Hydroxy-1-methyl-2-oxo-7-(3-pyridinyl)-1,2-dihydro-1,8-naphthyridin-3-yl)carbonyl)glycine] had an IC50 below 50 nM.

In turn, `Cn1c(=O)c(C(=O)NCC(=O)O)c(O)c2ccc(C3CCCCC3)nc21` [Example 18, 2-(7-Cyclohexyl-4-hydroxy-1-methyl-2-oxo-1,2-dihydro-1,8-naphthyridine-3-carboxamido)acetic acid] had an IC50 of 100 to 500 nM.

The compound `Cn1c(=O)c(C(=O)NCC(=O)O)c(O)c2ccc(C#C[Si](C)(C)C)nc21` [Example 19, 2-(4-Hydroxy-1-methyl-2-oxo-7-(2-(trimethylsilyl)ethynyl)-1,2-dihydro-1,8-naphthyridine-3-carboxamido)acetic acid] showed an IC50 of 50 to 100 nM.

`C#Cc1ccc2c(O)c(C(=O)NCC(=O)O)c(=O)n(C)c2n1` [Example 20, 2-(7-Ethynyl-4-hydroxy-1-methyl-2-oxo-1,2-dihydro-1,8-naphthyridine-3-carboxamido)acetic acid] gave a half-maximal inhibitory concentration (IC50) below 50 nM.

`Cn1c(=O)c(C(=O)NCC(=O)O)c(O)c2ccc(C#CC3CC3)nc21` [Example 21, 2-(7-(2-Cyclopropylethynyl)-4-hydroxy-1-methyl-2-oxo-1,2-dihydro-1,8-naphthyridine-3-carboxamido)acetic acid] registered an IC50 below 50 nM.

On to `Cn1c(=O)c(C(=O)NCC(=O)O)c(O)c2ccc(N3CCCCC3)nc21` [Example 22, 2-(4-Hydroxy-1-methyl-2-oxo-7-(piperidin-1-yl)-1,2-dihydro-1,8-naphthyridine-3-carboxamido)acetic acid], for which the concentration for half-maximal inhibition (IC50) was 50 to 100 nM.

In the case of `Cn1c(=O)c(C(=O)NCC(=O)O)c(O)c2ccc(N3CCOCC3)nc21` [Example 23, 2-(4-Hydroxy-1-methyl-7-morpholino-2-oxo-1,2-dihydro-1,8-naphthyridine-3-carboxamido)acetic acid], the IC50 lay in the range of 100 to 500 nM.

The compound `Cn1c(=O)c(C(=O)NCC(=O)O)c(O)c2ccc(N3CCC(C(F)(F)F)CC3)nc21` [Example 24, 2-(4-Hydroxy-1-methyl-2-oxo-7-(4-(trifluoromethyl)piperidin-1-yl)-1,2-dihydro-1,8-naphthyridine-3-carboxamido)acetic acid] yielded an IC50 of 500 to 1000 nM.

For `COc1ccc2c(O)c(C(=O)NCC(=O)O)c(=O)n(C)c2n1` [Example 25, 2-(4-Hydroxy-7-methoxy-1-methyl-2-oxo-1,2-dihydro-1,8-naphthyridine-3-carboxamido)acetic acid], the concentration for half-maximal inhibition (IC50) was below 50 nM.

`Cn1c(=O)c(C(=O)NCC(=O)O)c(O)c2cc(C3=CCOCC3)cnc21` [Example 26, 2-(6-(3,6-Dihydro-2 H-pyran-4-yl)-4-hydroxy-1-methyl-2-oxo-1,2-dihydro-1,8-naphthyridine-3-carboxamido)acetic acid]: the IC50 was in the range of 50 to 100 nM.

Consider `Cc1ccnc(-c2cnc3c(c2)c(O)c(C(=O)NCC(=O)O)c(=O)n3C)n1` [Example 27, 2-(4-Hydroxy-1-methyl-6-(4-methylpyrimidin-2-yl)-2-oxo-1,2-dihydro-1,8-naphthyridine-3-carboxamido)acetic acid], for which the IC50 is below 50 nM.

`Cn1c(=O)c(C(=O)NCC(=O)O)c(O)c2cc(-c3nccc(C(F)(F)F)n3)cnc21` [Example 28] yielded an IC50 below 50 nM.

Compound `COc1ccnc(-c2cnc3c(c2)c(O)c(C(=O)NCC(=O)O)c(=O)n3C)n1` [Example 29, 2-(4-Hydroxy-6-(4-methoxypyrimidin-2-yl)-1-methyl-2-oxo-1,2-dihydro-1,8-naphthyridine-3-carboxamido)acetic acid] yielded an IC50 below 50 nM.

On to `Cc1cc(C)nc(-c2cnc3c(c2)c(O)c(C(=O)NCC(=O)O)c(=O)n3C)n1` [Example 30, 2-(6-(4,6-Dimethylpyrimidin-2-yl)-4-hydroxy-1-methyl-2-oxo-1,2-dihydro-1,8-naphthyridine-3-carboxamido)acetic acid], for which the IC50 fell in the range of 50 to 100 nM.

In turn, `Cn1c(=O)c(C(=O)NCC(=O)O)c(O)c2cc(-c3cc(Cl)ncn3)cnc21` [Example 31, 2-(6-(6-Chloropyrimidin-4-yl)-4-hydroxy-1-methyl-2-oxo-1,2-dihydro-1,8-naphthyridine-3-carboxamido)acetic acid] had an IC50 below 50 nM.

In the case of `Cn1c(=O)c(C(=O)NCC(=O)O)c(O)c2cc(-c3cccc(C(F)(F)F)n3)cnc21` [Example 32, N-((4-Hydroxy-1-methyl-2-oxo-6-(6-(trifluoromethyl)-2-pyridinyl)-1,2-dihydro-1,8-naphthyridin-3-yl)carbonyl)glycine], the IC50 is 50 to 100 nM.

For the compound `CN(C)c1ccccc1-c1cnc2c(c1)c(O)c(C(=O)NCC(=O)O)c(=O)n2C` [Example 33, 2-(6-(2-(Dimethylamino)phenyl)-4-hydroxy-1-methyl-2-oxo-1,2-dihydro-1,8-naphthyridine-3-carboxamido)acetic acid], the IC50 was in the range of 50 to 100 nM.

For the compound `Cn1c(=O)c(C(=O)NCC(=O)O)c(O)c2cc(C3CCOCC3)cnc21` [Example 34, 2-(4-Hydroxy-1-methyl-2-oxo-6-(tetrahydro-2 H-pyran-4-yl)-1,2-dihydro-1,8-naphthyridine-3-carboxamido)acetic acid], the IC50 is below 50 nM.

Consider `Cc1ccccc1-c1cnc2c(c1)c(O)c(C(=O)NCC(=O)O)c(=O)n2C` [Example 35, N-((4-Hydroxy-1-methyl-6-(2-methylphenyl)-2-oxo-1,2-dihydro-1,8-naphthyridin-3-yl)carbonyl)glycine], for which the IC50 lay in the range of 50 to 100 nM.

In the case of `CC(C)Oc1ccccc1-c1cnc2c(c1)c(O)c(C(=O)NCC(=O)O)c(=O)n2C` [Example 36, N-((4-Hydroxy-1-methyl-6-(2-((1-methylethyl)oxy)phenyl)-2-oxo-1,2-dihydro-1,8-naphthyridin-3-yl)carbonyl)glycine], the IC50 is 100 to 500 nM.

As for `CC(C)Oc1ccc(-c2cnc3c(c2)c(O)c(C(=O)NCC(=O)O)c(=O)n3C)cc1` [Example 37, N-((4-Hydroxy-1-methyl-6-(4-((1-methylethyl)oxy)phenyl)-2-oxo-1,2-dihydro-1,8-naphthyridin-3-yl)carbonyl)glycine], the IC50 lay in the range of 100 to 500 nM.

In the case of `CC(C)Oc1cccc(-c2cnc3c(c2)c(O)c(C(=O)NCC(=O)O)c(=O)n3C)c1` [Example 38, N-((4-Hydroxy-1-methyl-6-(3-((1-methylethyl)oxy)phenyl)-2-oxo-1,2-dihydro-1,8-naphthyridin-3-yl)carbonyl)glycine], the IC50 fell in the range of 100 to 500 nM.

Compound `Cn1c(=O)c(C(=O)NCC(=O)O)c(O)c2cc(-c3ccc4c(c3)CCO4)cnc21` [Example 39, N-((6-(2,3-Dihydro-1-benzofuran-5-yl)-4-hydroxy-1-methyl-2-oxo-1,2-dihydro-1,8-naphthyridin-3-yl)carbonyl)glycine] yielded an IC50 of 50 to 100 nM.

`Cc1cccc(C)c1-c1cnc2c(c1)c(O)c(C(=O)NCC(=O)O)c(=O)n2C` [Example 40, N-((6-(2,6-Dimethylphenyl)-4-hydroxy-1-methyl-2-oxo-1,2-dihydro-1,8-naphthyridin-3-yl)carbonyl)glycine] registered an IC50 of 100 to 500 nM.

`Cn1c(=O)c(C(=O)NCC(=O)O)c(O)c2cc(-c3ccccc3C(N)=O)cnc21` [Example 41, N-((6-(2-(Aminocarbonyl)phenyl)-4-hydroxy-1-methyl-2-oxo-1,2-dihydro-1,8-naphthyridin-3-yl)carbonyl)glycine] displayed an IC50 of 50 to 100 nM.

By IC50 is commonly meant the concentration that inhibits the measured activity by half. A high value points to weaker potency.
